Reference: PubChem BioAssay AID1963846 (Molecular Pharmacology Branch, DTP, NCI, 2024)

Test system: 454973-116-R2-J3-PDC complex spheroid viability
Test: Anticancer human tumor 454973-116-R2-J3-PDC patient-derived pancreatic carcinoma cell line growth inhibition [POLQ]
Details: for IC50: curve of first compound; for viability, T/C: stronger effect = lower value
Summary of the method: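 Patient-derived tumour cells were co-cultured with HUVEC and mesenchymal stem cells as multicellular spheroids at 37 °C. They were treated with POLQ inhibitors (novobiocin, ART-558, RP6685) alone or combined with other agents. Top concentrations were at or near clinical Cmax (otherwise 10 microM; SN-38 at 1 microM), decreasing in half-log steps.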

[1] = second compound 0.0316 µM, first compound 0.0316 µM
[2] = second compound 0.0316 µM, first compound 0.1 µM
[3] = second compound 0.0316 µM, first compound 0.316 µM
[4] = second compound 0.0316 µM, first compound 1 µM
[5] = second compound 0.0316 µM, first compound 3.16 µM
[6] = second compound 0.0316 µM, first compound 10 µM
[7] = second compound 0.1 µM, first compound 0.0316 µM
[8] = second compound 0.1 µM, first compound 0.1 µM
[9] = second compound 0.1 µM, first compound 0.316 µM
[10] = second compound 0.1 µM, first compound 1 µM
[11] = second compound 0.1 µM, first compound 3.16 µM
[12] = second compound 0.1 µM, first compound 10 µM
[13] = second compound 0.316 µM, first compound 0.0316 µM
[14] = second compound 0.316 µM, first compound 0.1 µM
[15] = second compound 0.316 µM, first compound 0.316 µM
[16] = second compound 0.316 µM, first compound 1 µM
[17] = second compound 0.316 µM, first compound 3.16 µM
[18] = second compound 0.316 µM, first compound 10 µM
[19] = second compound 1 µM, first compound 0.0316 µM
[20] = second compound 1 µM, first compound 0.1 µM
[21] = second compound 1 µM, first compound 0.316 µM
[22] = second compound 1 µM, first compound 1 µM
[23] = second compound 1 µM, first compound 3.16 µM
[24] = second compound 1 µM, first compound 10 µM
[25] = second compound 3.16 µM, first compound 0.0316 µM
[26] = second compound 3.16 µM, first compound 0.1 µM
[27] = second compound 3.16 µM, first compound 0.316 µM
[28] = second compound 3.16 µM, first compound 1 µM
[29] = second compound 3.16 µM, first compound 3.16 µM
[30] = second compound 3.16 µM, first compound 10 µM
[31] = second compound 10 µM, first compound 0.0316 µM
[32] = second compound 10 µM, first compound 0.1 µM
[33] = second compound 10 µM, first compound 0.316 µM
[34] = second compound 10 µM, first compound 1 µM
[35] = second compound 10 µM, first compound 3.16 µM
[36] = second compound 10 µM, first compound 10 µM
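Note: spheroids exposed to drugs for seven days before measurement.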
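Throughout, for viability, T/C: percent viability relative to DMSO vehicle control wells taken as 100%.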

O=C(Nc1ccc(O)c(NS(=O)(=O)c2ccc(F)cc2)c1)c1ccc(-c2ccccc2)cc1 + COC1C(OC(N)=O)C(O)C(Oc2ccc3c(O)c(NC(=O)c4ccc(O)c(CC=C(C)C)c4)c(=O)oc3c2C)OC1(C)C
IC50 (second compound 0.0316 µM): > 10 µM
IC50 (second compound 0.1 µM): > 10 µM
IC50 (second compound 0.316 µM): > 10 µM
IC50 (second compound 1 µM): > 10 µM
IC50 (second compound 3.16 µM): > 10 µM
IC50 (second compound 10 µM): > 10 µM
viability, T/C [1]: 93%
viability, T/C [2]: 107%
viability, T/C [3]: 98.8%
viability, T/C [4]: 112%
viability, T/C [5]: 112%
viability, T/C [6]: 105%
viability, T/C [7]: 101%
viability, T/C [8]: 119%
viability, T/C [9]: 103%
viability, T/C [10]: 124%
viability, T/C [11]: 106%
viability, T/C [12]: 105%
viability, T/C [13]: 101%
viability, T/C [14]: 110%
viability, T/C [15]: 112%
viability, T/C [16]: 116%
viability, T/C [17]: 113%
viability, T/C [18]: 103%
viability, T/C [19]: 109%
viability, T/C [20]: 104%
viability, T/C [21]: 108%
viability, T/C [22]: 117%
viability, T/C [23]: 109%
viability, T/C [24]: 98.4%
viability, T/C [25]: 113%
viability, T/C [26]: 115%
viability, T/C [27]: 107%
viability, T/C [28]: 106%
viability, T/C [29]: 118%
viability, T/C [30]: 94.2%
viability, T/C [31]: 108%
viability, T/C [32]: 92.1%
viability, T/C [33]: 93.4%
viability, T/C [34]: 104%
viability, T/C [35]: 102%
viability, T/C [36]: 85.6%

CC1COCCN1c1cc(C2(S(C)(=N)=O)CC2)nc(-c2ccnc3[nH]ccc23)n1 (stereo unspecified) + Cc1cccc(N(C)C(=O)C2C(O)CCN2c2nc(C)cc(C(F)(F)F)c2C#N)c1
IC50 (second compound 0.0316 µM): 6.39 µM
IC50 (second compound 0.1 µM): 6.9 µM
IC50 (second compound 0.316 µM): 5.75 µM
IC50 (second compound 1 µM): 5.92 µM
IC50 (second compound 3.16 µM): 6.6 µM
IC50 (second compound 10 µM): 5.9 µM
viability, T/C [1]: 111%
viability, T/C [2]: 105%
viability, T/C [3]: 103%
viability, T/C [4]: 108%
viability, T/C [5]: 85.2%
viability, T/C [6]: 27.4%
viability, T/C [7]: 111%
viability, T/C [8]: 116%
viability, T/C [9]: 105%
viability, T/C [10]: 104%
viability, T/C [11]: 75.2%
viability, T/C [12]: 37.9%
viability, T/C [13]: 104%
viability, T/C [14]: 107%
viability, T/C [15]: 111%
viability, T/C [16]: 110%
viability, T/C [17]: 72.4%
viability, T/C [18]: 29.4%
viability, T/C [19]: 111%
viability, T/C [20]: 113%
viability, T/C [21]: 114%
viability, T/C [22]: 109%
viability, T/C [23]: 75%
viability, T/C [24]: 29.1%
viability, T/C [25]: 117%
viability, T/C [26]: 112%
viability, T/C [27]: 113%
viability, T/C [28]: 96.3%
viability, T/C [29]: 80.8%
viability, T/C [30]: 33%
viability, T/C [31]: 114%
viability, T/C [32]: 112%
viability, T/C [33]: 106%
viability, T/C [34]: 102%
viability, T/C [35]: 74.6%
viability, T/C [36]: 28.8%

Nc1ccn(C2OC(CO)C(O)C2(F)F)c(=O)n1 (stereo unspecified) + COC1C(OC(N)=O)C(O)C(Oc2ccc3c(O)c(NC(=O)c4ccc(O)c(CC=C(C)C)c4)c(=O)oc3c2C)OC1(C)C
IC50 (second compound 0.0316 µM): < 0.0316 µM
IC50 (second compound 0.1 µM): < 0.0316 µM
IC50 (second compound 0.316 µM): < 0.0316 µM
IC50 (second compound 1 µM): < 0.0316 µM
IC50 (second compound 3.16 µM): < 0.0316 µM
IC50 (second compound 10 µM): < 0.0316 µM
viability, T/C [1]: 14.4%
viability, T/C [2]: 8.27%
viability, T/C [3]: 11.6%
viability, T/C [4]: 11.3%
viability, T/C [5]: 11.7%
viability, T/C [6]: 12.9%
viability, T/C [7]: 12.6%
viability, T/C [8]: 11.2%
viability, T/C [9]: 10.2%
viability, T/C [10]: 11.4%
viability, T/C [11]: 11.2%
viability, T/C [12]: 10.5%
viability, T/C [13]: 10.3%
viability, T/C [14]: 9.75%
viability, T/C [15]: 10.9%
viability, T/C [16]: 11%
viability, T/C [17]: 15.1%
viability, T/C [18]: 10.2%
viability, T/C [19]: 12%
viability, T/C [20]: 11.9%
viability, T/C [21]: 13.1%
viability, T/C [22]: 13.4%
viability, T/C [23]: 11.2%
viability, T/C [24]: 14.5%
viability, T/C [25]: 12.2%
viability, T/C [26]: 15.2%
viability, T/C [27]: 11.4%
viability, T/C [28]: 10.9%
viability, T/C [29]: 11%
viability, T/C [30]: 11.1%
viability, T/C [31]: 13.2%
viability, T/C [32]: 10.8%
viability, T/C [33]: 12.5%
viability, T/C [34]: 12.4%
viability, T/C [35]: 11.9%
viability, T/C [36]: 12%
